Measured values reported in the supplement of paper PMC9013687.

Test system: Danio rerio embryo
Experiment: spontaneous tail coiling frequency (coils/min/embryo); higher = more spontaneous movement
Details: 25 hpf
Experimental: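 Spontaneous tail coilings of zebrafish embryos exposed from 2 hpf were recorded at 24-25 hpf in 1-min videos and detected by a KNIME workflow from grey-value variance. Betamethasone was tested as the dipropionate, diflorasone as the diacetate.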

COc1ccc(Cl)cc1C(=O)NCCc1ccc(S(=O)(=O)NC(=O)NC2CCCCC2)cc1 [Glibenclamide]
Details | spontaneous tail coiling frequency
3.16 µM | 1.79
3.2 µM | 0.98
6.3 µM | 1.48
6.33 µM | 1.79
12.65 µM | 0.8
12.7 µM | 1.41
25.3 µM | 1.69
50.6 µM | 1.97
50.61 µM | 1.66
